Like-named read-outs stand apart in the source and are kept apart here. One block for each compound: values may come before it.
Assays:
menin protein = menin protein (Homo sapiens (Human), UniProt O00255); experiment: biochemical; type: binding; settings: FP competitive binding; menin protein 4 nM, FAM-MM2 probe 2 nM; read-out: Menin Binding Affinity IC50
Procedure, shortened: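 Test compounds displaced FAM-MM2 (2 nM) from 4 nM menin after 30 min equilibration at room temperature in PBS buffer containing bovine γ-globulin, 4% DMSO and Triton X-100. Binding was followed by fluorescence polarization. Competition curves were fitted by nonlinear regression to give IC50 and Ki.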

[1] = Cell growth inhibition, CellTiter-Glo Luminescent Cell Viability Assay; type: cell-based
Method: Cell growth inhibitory activity of representative menin inhibitors was determined using CellTiter-Glo® Luminescent Cell Viability Assay. Cells were seeded in 384-well white opaque cell culture plates at a density of 2,000 cells/well with serially diluted compounds and incubated at 37° C. in an atmosphere of 95% air and 5% CO2 for 4 days. Cell viability was determined using the CellTiter-Glo® Luminescent Cell Viability Assay Kit (Promega, Madison, Wis.) according to the manufacture's instruction. Briefly, a volume of CellTiter-Glo® Reagent equal to the volume of cell culture medium was added to each well, and then the plates were incubated at room temperature for 10-20 minutes. The luminescent signal was measured using a Tecan Infinite M1000 multimode microplate reader (Tecan, Morrisville, N.C.). The half maximal inhibitory concentration (IC50) was calculated using the GraphPad Prism 5 software (GraphPad Software, La Jolla, Calif.).

[2] = MOLM-13, 96 h, read-out: Cell Growth Inhibition IC50 (μM) MOLM13, MOLM13 cells, 4 days, CellTiter-Glo
[3] = MV4-11, 96 h, read-out: Cell Growth Inhibition IC50 (μM) MV4, 11, MV4, 11 cells, 4 days, CellTiter-Glo
[4] = MOLM-13, 96 h, MOLM13 cells, 4 days, CellTiter-Glo, read-out: Cell Growth Inhibition IC50 (μM) MOLM13
[5] = MV4-11, 96 h, MV4, 11 cells, 4 days, CellTiter-Glo, read-out: Cell Growth Inhibition IC50 (μM) MV4, 11

menin protein, sequence (O00255 whole entry): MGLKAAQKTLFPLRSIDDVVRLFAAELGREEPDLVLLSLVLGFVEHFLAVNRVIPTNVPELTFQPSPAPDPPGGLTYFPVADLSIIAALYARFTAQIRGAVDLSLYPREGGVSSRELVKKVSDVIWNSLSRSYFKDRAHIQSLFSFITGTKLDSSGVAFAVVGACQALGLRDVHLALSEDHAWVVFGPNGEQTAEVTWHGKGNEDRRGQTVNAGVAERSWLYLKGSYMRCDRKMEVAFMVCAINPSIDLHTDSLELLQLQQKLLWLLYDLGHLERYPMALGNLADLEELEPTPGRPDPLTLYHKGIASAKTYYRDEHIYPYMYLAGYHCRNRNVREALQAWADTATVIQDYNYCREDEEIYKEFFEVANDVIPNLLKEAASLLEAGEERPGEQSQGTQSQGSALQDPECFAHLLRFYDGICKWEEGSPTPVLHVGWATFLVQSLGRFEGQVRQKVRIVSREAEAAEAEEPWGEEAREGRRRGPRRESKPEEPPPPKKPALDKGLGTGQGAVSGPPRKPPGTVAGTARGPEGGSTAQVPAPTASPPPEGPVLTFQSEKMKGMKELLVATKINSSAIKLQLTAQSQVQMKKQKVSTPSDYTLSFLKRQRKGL

- IC50 (menin protein): 0.009 µM
SMILES: CNC(=O)O[C@H]1CCC[C@@H]1C(C#N)(c1ccccc1)C1CCN(CC2CN(c3ccc(S(=O)(=O)c4ccccc4)cc3)C2)CC1 (mixture of isomers) [compound 225, rac-(1S,2R)-2-(cyano(phenyl)(1-((1-(4-(phenylsulfonyl)phenyl)azetidin-3-yl)methyl)piperidin-4-yl)methyl)cyclopentyl methylcarbamate]
- IC50 [1, 2]: 0.82 µM
- IC50 [1, 3]: 0.24 µM

SMILES: CCN1Cc2ccccc2C(C2CCN(CC3CN(c4ccc(S(=O)(=O)C5CC5)cc4)C3)CC2)([C@H]2CCC[C@@H]2NC(=O)NC)C1 (mixture of isomers) [compound 289, rac-1-((1S,2R)-2-(4-(1-((1-(4-(cyclopropylsulfonyl)phenyl)azetidin-3-yl)methyl)piperidin-4-yl)-2-ethyl-1,2,3,4-tetrahydroisoquinolin-4-yl)cyclopentyl)-3-methylurea]
- IC50 (menin protein): 0.004 µM
- IC50 [1, 2]: 0.32 µM
- IC50 [1, 3]: 0.17 µM

SMILES: O=S(=O)(c1ccccc1)c1ccc(N2CC(CN3CCC(C4(C5CCCC5)NCCc5ccccc54)CC3)C2)cc1 (stereo not shown) [compound 149, 1-cyclopentyl-1-(1-((1-(4-(phenylsulfonyl)phenyl)azetidin-3-yl)methyl)piperidin-4-yl)-1,2,3,4-tetrahydroisoquinoline]
- IC50 (menin protein): 0.012 µM
- IC50 [1, 4]: 0.331 µM
- IC50 [1, 5]: 0.493 µM

SMILES: CCN1Cc2ccccc2C(C2CCN(CC3CN(c4ccc(S(=O)(=O)c5cnn(C)c5)cc4)C3)CC2)([C@H]2CCC[C@@H]2NC(=O)NC)C1 (mixture of isomers) [Cpd. No. 291, rac-1-((1S,2R)-2-(2-ethyl-4-(1-((1-(4-((1-methyl-1H-pyrazol-4-yl)sulfonyl)phenyl)azetidin-3-yl)methyl)piperidin-4-yl)-1,2,3,4-tetrahydroisoquinolin-4-yl)cyclopentyl)-3-methylurea]
- IC50 (menin protein): 0.007 µM
- IC50 [1, 2]: 0.71 µM
- IC50 [1, 3]: 0.2 µM

SMILES: CNC(=O)O[C@H]1CCC[C@@H]1C(C#N)(c1ccccc1)C1CCN(CC2CN(c3ccc(S(=O)(=O)c4cnn(C)c4)cc3)C2)CC1 (mixture of isomers) [compound 240, rac-(1S,2R)-2-(cyano(1-((1-(4-((1-methyl-1H-pyrazol-4-yl)sulfonyl)phenyl)azetidin-3-yl)methyl)piperidin-4-yl)(phenyl)methyl) cyclopentyl methylcarbamate]
- IC50 (menin protein): 0.009 µM
- IC50 [1, 2]: 0.54 µM
- IC50 [1, 3]: 0.2 µM

SMILES: CNC(=O)N[C@H]1CCC[C@@H]1C1(C2CCN(CC3CN(c4ccc(S(=O)(=O)C5CC5)cc4)C3)CC2)CN(C)Cc2ccccc21 (mixture of isomers) [compound 283, rac-1-((1S,2R)-2-(4-(1-((1-(4-(cyclopropylsulfonyl)phenyl)azetidin-3-yl)methyl)piperidin-4-yl)-2-methyl-1,2,3,4-tetrahydroisoquinolin-4-yl)cyclopentyl)-3-methylurea]
- IC50 (menin protein): 0.01 µM
- IC50 [1, 2]: 0.53 µM
- IC50 [1, 3]: 0.21 µM

- IC50 (menin protein): 0.016 µM
SMILES: COC(=O)N[C@H]1CCC[C@@H]1C(C#N)(c1ccccc1)C1CCN(CC2CN(c3ccc(S(=O)(=O)C4CC4)cc3Cl)C2)CC1 (mixture of isomers) [compound 395, methyl rac-((1S,2R)-2-((1-((1-(2-chloro-4-(cyclopropylsulfonyl)phenyl)azetidin-3-yl)methyl)piperidin-4-yl)(cyano)(phenyl)methyl)cyclopentyl)carbamate]
- IC50 [1, 2]: 2.29 µM
- IC50 [1, 3]: 0.65 µM

SMILES: COC(=O)N[C@H]1CCC[C@@H]1C(C#N)(c1ccccc1)C1CCN(CC2CN(c3ccc(C#N)cc3)C2)CC1 (mixture of isomers) [compound 400, methyl rac-((1S,2R)-2-(cyano(1-((1-(4-cyanophenyl)azetidin-3-yl)methyl)piperidin-4-yl)(phenyl)methyl)cyclopentyl) carbamate]
- IC50 [1, 4]: 6.11 µM
- IC50 [1, 5]: 0.83 µM

SMILES: COC(=O)N[C@H]1CCC[C@@H]1C(C#N)(c1ccccc1)C1CCN(CC2CN(c3ccc(S(=O)(=O)C(F)(F)F)cc3)C2)CC1 (mixture of isomers) [compound 393, methyl rac-((1S,2R)-2-(cyano(phenyl)(1-((1-(4-((trifluoromethyl)sulfonyl)phenyl)azetidin-3-yl)methyl)piperidin-4-yl)methyl)cyclopentyl) carbamate]
- IC50 [1, 2]: 0.88 µM
- IC50 [1, 3]: 0.25 µM
